Reference: patent publication US8101612B2, “Phthalazine compounds and methods of use” (Amgen Inc., priority 2006, dated 2012)

How the values were obtained:
[1] = test system: THP1 cells (LPS-induced TNF-α secretion); assay: Lipopolysaccharide-activated THP1 cell TNF production assay; assay type: cell-based; details: Homo sapiens, THP-1
Experimental: Lipopolysaccharide-Activated THP1 Cell TNF Production Assay
THP1 cells are resuspended in fresh THP1 media (RPMI 1640, 10% heat-inactivated FBS, 1XPGS, 1XNEAA, plus 30 μM βME) at a concentration of 1E6/mL. One hundred microliters of cells per well are plated in a polystyrene 96-well tissue culture. One microgram per mL of bacterial LPS is prepared in THP1 media and is transferred to the wells. Test compounds are dissolved in 100% DMSO and are serially diluted 3-fold in a polypropylene 96-well microtiter plate (drug plate). HI control and LO control wells contain only DMSO. One microliter of test compound from the drug plate followed by 10 μL of LPS are transferred to the cell plate. The treated cells are induced to synthesize and secrete TNF-α at 37° C. for 3 h. Forty microliters of conditioned media are transferred to a 96-well polypropylene plate containing 110 μL of ECL buffer (50 mM Tris-HCl pH 8.0, 100 mM NaCl, 0.05% Tween 20, 0.05% NaN3 and 1% FBS) supplemented with 0.44 nM MAB610 monoclonal Ab (R&D Systems), 0.34 nM ruthenylated AF210NA polyclonal Ab (R&D Systems) and 44 μg/mL sheep anti-mouse M280 Dynabeads (Dynal). After a 2 h incubation at room temperature with shaking, the reaction is read on the ECL M8 Instrument (IGEN Inc.). A low voltage is applied to the ruthenylated TNF-α immune complexes, which in the presence of TPA (the active component in Origlo), results in a cyclical redox reaction generating light at […]. The amount of secreted TNF-α in the presence of compound compared with that in the presence of DMSO vehicle alone (HI control) is calculated using the formula: % control (POC)=(cpd−average LO)/(average HI−average LO)*100. Data (consisting of POC and inhibitor concentration in μM) is fitted to a 4-parameter equation (y=A+((B−A)/(1+((x/C)^D))), where A is the minimum y (POC) value, B is the maximum y (POC), C is the x (cpd concentration) at the point of inflection and D is the slope factor) using a Levenburg-Marquardt non-linear regression algorithm.

[2] = test system: production of TNF by monocytes activated with bacterial lipopolysaccharide (LPS); assay: Lipopolysaccharide-activated monocyte TNF production assay (whole blood monocyte assay, LPS induced TNF release); assay type: cell-based; details: Homo sapiens
Experimental: Lipopolysaccharide-Activated Monocyte TNF Production Assay
Test compounds were evaluated in vitro for the ability to inhibit the production of TNF by monocytes activated with bacterial lipopolysaccharide (LPS). Fresh residual source leukocytes (a byproduct of plateletpheresis) were obtained from a local blood bank, and peripheral blood mononuclear cells (PBMCs) were isolated by density gradient centrifugation on Ficol-Paque Plus (Pharmacia). PBMCs were suspended at 2×10^6/mL in DMEM supplemented to contain 2% FCS, 10 mM, 0.3 mg/mL […], 100 U/mL penicillin G and […] streptomycin sulfate (complete media). Cells were plated into Falcon flat bottom, 96 well culture plates (200 μL/well) and cultured overnight at 37° C. and 6% CO2. Non-adherent cells were removed by washing with 200 μl/well of fresh medium. Wells containing adherent cells (˜70% monocytes) were replenished with 100 μL of fresh medium.
Preparation of Test Compound Stock Solutions
Test compounds were dissolved in […]. Compound stock solutions were prepared to an initial concentration of […]. Stocks were diluted initially to 20-200 μM in complete media. Nine two-fold serial dilutions of each compound were then prepared in complete medium.
Treatment of Cells with Test Compounds and Activation of TNF Production with Lipopolysaccharide
One hundred microliters of each test compound dilution were added to microtiter wells containing adherent monocytes and 100 μL complete medium. Monocytes were cultured with test compounds for 60 min at which time 25 μL of complete medium containing 30 ng/mL lipopolysaccharide from E. coli K532 were added to each well. Cells were cultured an additional 4 hrs. Culture supernatants were then removed and TNF presence in the supernatants was quantified using an ELISA.
Flat bottom, 96 well Corning High Binding ELISA plates were coated overnight (4° C.) with 150 μL/well of 3 μg/mL murine anti-human TNF-α MAb (R&D Systems #MAB210). Wells were then blocked for 1 h at room temperature with 200 μL/well of CaCl2-free ELISA buffer supplemented to contain 20 mg/mL BSA (standard ELISA buffer: […], 150 mM NaCl, 2 mM CaCl2, 0.15 mM thimerosal, pH 7.4). Plates were washed and replenished with 100 μL of test supernatants (diluted 1:3) or standards. Standards consisted of eleven 1.5-fold serial dilutions from a stock of 1 ng/mL recombinant human TNF (R&D Systems). Plates were incubated at room temperature for 1 h on orbital shaker (300 rpm), washed and replenished with 100 μL/well of 0.5 μg/mL goat anti-human TNF-α (R&D systems #AB-210-NA) biotinylated at a 4:1 ratio. Plates were incubated for 40 min, washed and replenished with 100 μL/well of alkaline phosphatase-conjugated streptavidin (Jackson ImmunoResearch #016-050-084) at 0.02 μg/mL. Plates were incubated 30 min, washed and replenished with 200 μL/well of 1 mg/mL of p-nitrophenyl phosphate. After 30 min, plates were read at 405 nm on a Vmax plate reader.

[3] = AA5225_IC50_IP (Table 4, assay code not explained); details: internal assay code
[4] = AA2734_IC50_IP (Table 4, assay code not explained); details: internal assay code

| Compound | IC50 [1] [nM] | IC50 [2] [nM] | also measured |
| --- | --- | --- | --- |
| CC(C)Nc1nncc2cc(-c3cc(C(=O)NC4CC4)ccc3Cl)ccc12 [Example 23, 4-chloro-N-cyclopropyl-3-(1-((1-methylethyl)amino)-6-phthalazinyl)benzamide] | ≤ 10 | – | – |
| Cc1ccc(C(=O)NC(C)C)cc1-c1ccc2c(N3CCC[C@H]3C)nncc2c1 [Example 37, 4-methyl-N-(1-methylethyl)-3-(1-((2R)-2-methyl-1-pyrrolidinyl)-6-phthalazinyl)benzamide] | – | ≤ 10 | – |
| Cc1ccc(C(=O)NC2CC2)cc1-c1ccc2c(-c3cc(F)c(S(C)(=O)=O)cc3C)nncc2c1 [Example 223, N-cyclopropyl-3-(1-(5-fluoro-2-methyl-4-(methylsulfonyl)phenyl)-6-phthalazinyl)-4-methylbenzamide] | – | ≤ 10 | IC50 [3]: 0.854 nM; IC50 [4]: 1.22 nM |
| CC(C)Oc1nncc2cc(-c3cc(C(N)=O)ccc3Cl)ccc12 [Example 25, 4-chloro-3-(1-((1-methylethyl)oxy)-6-phthalazinyl)benzamide] | ≤ 10 | – | – |
| CCn1nccc1NC(=O)c1ccc(C)c(-c2ccc3c(NC(C)C)nncc3c2)c1 [Example 3, N-(1-Ethyl-1H-pyrazol-5-yl)-3-(1-(isopropylamino)phthalazin-6-yl)-4-methylbenzamide] | ≤ 10 | ≤ 10 | – |
| Cc1ccc(C(N)=O)cc1-c1ccc2c(O[C@H](C)C(F)(F)F)nncc2c1 [Example 43, 4-methyl-3-(1-(((1R)-2,2,2-trifluoro-1-methylethyl)oxy)-6-phthalazinyl)benzamide] | – | ≤ 100 | – |
| Cc1ccc(C(=O)Nc2ccon2)cc1-c1ccc2c(NC(C)C)nncc2c1 [Example 13, N-3-isoxazolyl-4-methyl-3-(1-((1-methylethyl)amino)-6-phthalazinyl)benzamide] | – | ≤ 10 | – |
| Cc1ccc(C(=O)Nc2ccn(C)n2)cc1-c1ccc2c(O[C@@H](C)C(F)(F)F)nncc2c1 [Example 72, 4-methyl-N-(1-methyl-1H-pyrazol-3-yl)-3-(1-(((1S)-2,2,2-trifluoro-1-methylethyl)oxy)-6-phthalazinyl)benzamide] | – | ≤ 10 | – |
| Cc1ccc(N)cc1-c1ccc2c(O[C@H](C)C(F)(F)F)nncc2c1 [Example 238, 4-methyl-3-(1-(((1R)-2,2,2-trifluoro-1-methylethyl)oxy)-6-phthalazinyl)aniline] | – | ≤ 250 | – |
| Cc1ccc(C(=O)NC(C)C)cc1-c1ccc2c(O[C@H](C)C(F)(F)F)nncc2c1 [Example 41, 4-methyl-N-(1-methylethyl)-3-(1-(((1R)-2,2,2-trifluoro-1-methylethyl)oxy)-6-phthalazinyl)benzamide] | – | ≤ 100 | – |
| Cc1ccc(C(=O)Nc2ccnn2C)cc1-c1ccc2c(OCC(F)(F)F)nncc2c1 [Example 2, 4-Methyl-N-(1-methyl-1H-pyrazol-5-yl)-3-(1-(2,2,2-trifluoroethoxy)phthalazin-6-yl)benzamide] | ≤ 10 | – | – |
| Cc1ccc(C(=O)NC2CC2)cc1-c1ccc2c([C@H](C)C(F)(F)F)nncc2c1 [Example 227b, N-cyclopropyl-4-methyl-3-(1-((1S)-2,2,2-trifluoro-1-methylethyl)-6-phthalazinyl)benzamide] | – | ≤ 10 | IC50 [3]: 1.61 nM; IC50 [4]: 0.33 nM |
| CCC(C)c1nncc2cc(-c3cc(C(N)=O)ccc3C)ccc12 (centres unmarked) [Example 51, 4-methyl-3-(1-(1-methylpropyl)-6-phthalazinyl)benzamide] | – | ≤ 10 | – |
| Cc1ccc(C(=O)Nc2ccnn2C)cc1-c1ccc2c(N3CCOC[C@@H]3C)nncc2c1 [Example 15, 4-methyl-3-(1-((3S)-3-methyl-4-morpholinyl)-6-phthalazinyl)-N-(1-methyl-1H-pyrazol-5-yl)benzamide] | – | ≤ 10 | – |
| Cc1ccc(C(=O)NC(C)C)cc1-c1ccc2c(C(C)C)nncc2c1 [Example 39, 4-methyl-N-(1-methylethyl)-3-(1-(1-methylethyl)-6-phthalazinyl)benzamide] | – | ≤ 10 | – |
| Cc1ccc(C(=O)Nc2ccnn2C)cc1-c1ccc2c(-c3ccccc3C)nncc2c1 [Example 5, 4-methyl-N-(1-methyl-1H-pyrazol-5-yl)-3-(1-o-tolylphthalazin-6-yl)benzamide] | ≤ 10 | ≤ 10 | – |
| Cc1ccc(C(=O)NCC(F)(F)F)cc1-c1ccc2c(NC(C)C)nncc2c1 [Example 29, 4-methyl-3-(1-((1-methylethyl)amino)-6-phthalazinyl)-N-(2,2,2-trifluoroethyl)benzamide] | – | ≤ 10 | – |
| Cc1ccc(C(=O)NC2(C)CC2)cc1-c1ccc2c(N3CCC[C@@H]3C)nncc2c1 [Example 66, 4-methyl-N-(1-methylcyclopropyl)-3-(1-((2S)-2-methyl-1-pyrrolidinyl)-6-phthalazinyl)benzamide] | – | ≤ 10 | – |
| Cc1ccc(C(N)=O)cc1-c1ccc2c(N3CCC[C@H]3C(C)(C)C)nncc2c1 [Example 35, 3-(1-((2S)-2-(1,1-dimethylethyl)-1-pyrrolidinyl)-6-phthalazinyl)-4-methylbenzamide] | – | ≤ 10 | – |
| Cc1ccc(C(=O)NC2CC2)cc1-c1ccc2c(OC(CF)CF)nncc2c1 [Example 49, N-cyclopropyl-3-(1-((2-fluoro-1-(fluoromethyl)ethyl)oxy)-6-phthalazinyl)-4-methylbenzamide] | ≤ 100 | – | – |
